Legend:
Assay type in all cases: in vivo
[1] = tested on: dust mite-sensitized rabbits; assay: BALF cell count, nebulized (Example 26)
Procedure: (§1) This study defines the effect of 7 days of treatment with DHEA-S on allergen-induced bronchial hyperresponsiveness (BHR), early and late phase responses, and pulmonary inflammation in dust mite-sensitized rabbits. Baseline BHR and inflammation were first determined. DHEA-S (5 mg/ml, 2 ml nebulized) or an equivalent volume of vehicle was delivered once per day via nebulization through a pediatric facemask covering the nose and mouth on days 1 through 7. On day 8, 24 hours after the last treatment, allergen challenge, pulmonary function testing and BALF were performed. On day 9, 24 hours after allergen challenge a histamine challenge was performed and the lungs removed for histology. The study includes 5 animals studied under a crossover design. There was a 3 week resting period between study arms and lungs were taken during the second treatment arm only. The treatment with DHEA-S led to the changes in the disease status of the animals described in the following paragraph.

[2] = tested on: dust mite-sensitized rabbits; assay: BALF inflammation, DHEA-S vs Pulmicort vs saline (Example 27)
Procedure: This follow-up study compared the effects of DHEA-S and Puimicort® (budesonide inhalation suspension) on allergen-induced bronchial hyperresponsiveness (BHR) to histamine and pulmonary inflammation in dust mite-sensitized rabbits. The study included 18 animals divided into 3 treatment groups: saline, DHEA-S, and Puimicort. The animals were treated for once per day for 5 consecutive days via nebulization through a pediatric facemask covering the nose and mouth. Treatments were DHEA-S, 10 mg/day (5 mg/ml), Pulmicort Respules, 0.5 mg/day (0.5 mg/2 ml, note: this is the standard human dose) or saline (2 ml). A dust mite challenge was performed on day 4, and development of airway inflammation was assessed 6 hours and 30 hours after dust mite challenge. Histamine sensitivity was assessed 30 hours after challenge (day 5) and the lungs removed for histology.

[3] = tested on: dust mite-sensitized rabbits; assay: Pulmonary function after allergen challenge, intratracheal powder (Example 25)
Procedure: This study defines the effect of 7 days of treatment with DHEA-S on allergen-induced bronchial hyperresponsiveness (BHR), early and late phase responses, and pulmonary inflammation in dust mite-sensitized rabbits. Baseline BHR and inflammation were first determined. The following week, allergen challenge, pulmonary function testing and BALF were performed on the untreated rabbits. Histamine sensitivity was determined 24 hours post allergen challenge. Rabbits were rested for 3 weeks then baseline values were re-established. The following week, DHEA-S (5 mg/day) was delivered once a day for 7 days via an intratracheal powder injector through the endrotracheal tube of the anesthetized rabbit. On day 8, 24 hrs after the last treatment, allergen challenge, pulmonary function testing and BALF were performed as previously. On day 9, 24 hrs after allergen challenge, a histamine challenge was performed. The drug was not micronized prior to use thus only a portion of the administered date was expected to reach the deep lung. The study includes 4 animals studied under a crossover design. The treatment with DHEA-S led to changes in the disease status of the animals that are described in the following paragraph.
Effects on airway obstruction were measured by changes in dynamic compliance and total lung resistance in response to allergen challenge. Rabbits were monitored for 6 hours following allergen challenge and the values plotted against time. Changes in dynamic compliance were determined by the % change in compliance as compared to the animal's initial saline value recorded prior to challenge. Changes in response to allergen and/or treatment were calculated using the area under the curve (AUC) where an AUC unit is defined as % change×hour. Treatment with DHEA-S attenuated the drop in airway compliance following allergen challenge by 86% as compared to allergen alone. Following allergen alone the total AUC was −146 units compared to −20 units for animals treated with DHEA-S. This difference in the total AUC for vehicle and DHEA-S treated animals was determined to be significant using Student's t-test for paired observations, p=0.036. Similarly, treatment with DHEA-S attenuated the increase in airway resistance following allergen challenge by 54% as compared to allergen alone. […] Variability during the late phase kept differences in AUC between the vehicle and drug treatment groups from being significant when analyzed using a paired t-test.

ragweed-sensitized mice = assay: Bronchial hyperresponsiveness to methacholine, whole-body plethysmograph (Example 28)
Procedure: Two groups of mice were sensitized with two intraperitoneal injections and one intranasat administration of ragweed allergen (Ambrosia artemistifolia) on days 0, 4 and 11 respectively. A third group was treated similarly with saline to serve as non-allergic controls. The next two days, the treatment group animals were exposed to DHEA-S delivered as an aerosol (5 mg/ml suspension in saline, 2 ml nebulized) using the whole-body plethysmograph system (Buxco Electronics, Inc., Sharon, Conn.) and a DeVilbiss ultrasonic nebulizer. Twenty-four hours after the last drug exposure, mice were challenged with increasing concentrations of methacholine to determine bronchial hyperresponsiveness and then lavaged to determine relative changes in cell populations in BAL fluid.
The ragweed only group responded in a dose-related fashion with increasing Penh value over the range of methacholine tested and a mean area under the curve of 7488.8.

[4] = tested on: dust mite-sensitized rabbits; assay: Pulmonary function after allergen challenge, nebulized (Example 26)
Procedure: as §1
Effects on airway obstruction were measured by changes in dynamic compliance and total lung resistance in response to allergen challenge. Rabbits were monitored for 6 hours following allergen challenge and the values plotted against time. Changes in dynamic compliance were determined by the % change in compliance as compared to the animal's initial saline value recorded prior to challenge. Changes in response to allergen and/or treatment were calculated using the AUC where an AUC unit is defined as % change×hour. Treatment with DHEA-S attenuated the drop in airway compliance following allergen challenge by 62% as compared to vehicle treatment. […] Variability during the early phase kept differences in AUC between the vehicle and drug treatment groups from being significant when analyzed using a paired t-test.

[5] = 6 hours after allergen-challenge, compared to vehicle control
[6] = 6 hours after allergen challenge, compared to Pulmicort
[7] = in the 6 hours after aerosol dust mite challenge

CC12CCC3C(CC=C4CC(OS(=O)(=O)[O-])CCC43C)C1CCC2=O.[Na+] (centres unmarked) [DHEA-S, Dehydroepiandrosterone sulfate]
lower numbers of eosinophils in BALF [1, 5]: 52%
lower numbers of macrophages in BALF [1, 5]: 68%
lower numbers of neutrophils in BALF [1, 5]: 69%
effect on BALF cell numbers ([1]; 24 hours after dust mite challenge): not significant
decrease of inflammatory cell migration into the BAL fluid ([1]; rabbit, in vivo): 68%
eosinophils in BAL fluid ([1]; six hours after dust mite challenge, vehicle 8): 4 ×10^4 eosinophils/ml
third cell count in BAL fluid (cell type not given) ([1]; six hours after dust mite challenge, vehicle 37): 12 ×10^4
neutrophils in BAL fluid ([1]; six hours after dust mite challenge, vehicle 94): 29 ×10^4 neutrophils/ml
number of eosinophils in BALF ([2]; 6 hours after allergen challenge): tended to decrease
decrease of epithelial shedding [2, 6]: 54%
reduction of number of neutrophils in the BALF [2, 6]: 91%
reduction of cellular influx of cells into the BALF ([2]; 6 hours after allergen challenge, compared to Pulmicort, DHEA-S 10 mg/day nebulized, 5 days): 62%
allergen-induced increase in neutrophils in BALF ([2]; 6 hours or 24 hours after allergen challenge): no allergen-induced increase in neutrophils
number of eosinophils in BALF ([2]; 24 hours after allergen challenge): significant elevation
total number of cells in the BALF compared to pre-challenge value ([2]; six hours following allergen challenge): did not
reduction of eosinophilic inflammation compared with budesonide ([2]; summary statement): at least equivalent to budesonide
reduction of neutrophilic inflammation compared with budesonide ([2]; summary statement): far superior
attenuation of the drop in airway compliance following allergen challenge ([3]; 5 mg/day intratracheal powder, 7 days, compared to allergen alone): 86%
total area under the curve for the change in resistance following allergen challenge ([3]; 6 hours, control 1069±243, not significant): 495
total area under the curve for the change in compliance following allergen challenge ([3]; AUC unit = % change×hour, 6 hours, control −146±29): −20 units
attenuation of the increase in airway resistance following allergen challenge ([3]; compared to allergen alone): 54%
reduction of airway resistance changes [3, 7]: over 200%
total area under the curve for the change in compliance following allergen challenge ([3]; inhaled or nasal, 6 h): −20±23 units
24-hour histamine responsiveness following allergen challenge ([3]; rabbit, in vivo): downward shift
reduction of area under the curve (AUC) of the methacholine response (ragweed-sensitized mice; aerosol 5 mg/ml suspension, 2 ml nebulized, two days): 46%
mean area under the curve of Penh response to methacholine (ragweed-sensitized mice; ragweed only 7488.8, non-allergic saline 2646.8): 4038.0
total AUC for airway resistance ([4]; 6 hours, control 315): 377
PC50 histamine ([4]; 48 hours after the last administration, control 0.84): 0.86 mg/mL
tolerance of pulmonary function testing and histamine challenges ([4]; 7 days of treatment via facemask, qualitative): better than vehicle-treated animals
effect on airway resistance changes [4, 7]: no significant effect
attenuation of the drop in airway compliance following allergen challenge ([4]; nebulized 5 mg/ml, 2 ml once per day, 7 days, compared to vehicle treatment): 62%
nasal congestion following histamine and dust mite challenges ([4]; rabbit, in vivo): no evidence of nasal congestion
